According to patent US10023593B2, “ALK kinase inhibitor, and preparation method and uses thereof” (BEIJING PEARL BIOTECHNOLOGY LIMITED LIABILITY COMPANY, priority 2014, dated 2018):

Columns and labels:
Wild Type ALK kinase = target: T1, Wild Type ALK kinase (Homo sapiens, UniProt Q9UM73); assay: HTRF KinEASE-TK assay, inhibitory activity on wild type ALK kinase; assay type: biochemical; settings: wild type ALK 1 ng/μl, substrate 1 μM, 30° C. 35 minutes, read-out: Inhibition on ALK kinases (wildtype), IC50
T1 construct: purchased Sino-US Crown Bioscience, Inc. batch number ALK 20110607
Summary of the method: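 ALK kinase at 1 ng/μl and substrate at 1 μM were reacted with compound (1% DMSO) in buffer with 5 mM MgCl2 and 1 mM DTT for 35 min at 30 °C. HTRF detection used the 665/615 ratio, normalised to no-compound wells and to 10.4 μM LDK-378 wells. IC50 came from a concentration-response fit.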

NCI-H2228 cell line = assay: CellTiter-Glo cell proliferation inhibition on NCI-H2228 cell line; assay type: cell-based; settings: Homo sapiens, NCI-H2228, 96 h, NCI-H2228 cells, 5000 cells/well, 4 days drug treatment
Summary of the method: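 NCI-H2228 cells, 5000/well in RPMI-1640 + 10% FBS, treated with compounds 2 h after seeding (0.5% DMSO final) for 4 days at 37° C. Viability by CellTiter-Glo luminescence; inhibition relative to DMSO control, IC50 from curve fit.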

T1 sequence (Q9UM73 19-1620): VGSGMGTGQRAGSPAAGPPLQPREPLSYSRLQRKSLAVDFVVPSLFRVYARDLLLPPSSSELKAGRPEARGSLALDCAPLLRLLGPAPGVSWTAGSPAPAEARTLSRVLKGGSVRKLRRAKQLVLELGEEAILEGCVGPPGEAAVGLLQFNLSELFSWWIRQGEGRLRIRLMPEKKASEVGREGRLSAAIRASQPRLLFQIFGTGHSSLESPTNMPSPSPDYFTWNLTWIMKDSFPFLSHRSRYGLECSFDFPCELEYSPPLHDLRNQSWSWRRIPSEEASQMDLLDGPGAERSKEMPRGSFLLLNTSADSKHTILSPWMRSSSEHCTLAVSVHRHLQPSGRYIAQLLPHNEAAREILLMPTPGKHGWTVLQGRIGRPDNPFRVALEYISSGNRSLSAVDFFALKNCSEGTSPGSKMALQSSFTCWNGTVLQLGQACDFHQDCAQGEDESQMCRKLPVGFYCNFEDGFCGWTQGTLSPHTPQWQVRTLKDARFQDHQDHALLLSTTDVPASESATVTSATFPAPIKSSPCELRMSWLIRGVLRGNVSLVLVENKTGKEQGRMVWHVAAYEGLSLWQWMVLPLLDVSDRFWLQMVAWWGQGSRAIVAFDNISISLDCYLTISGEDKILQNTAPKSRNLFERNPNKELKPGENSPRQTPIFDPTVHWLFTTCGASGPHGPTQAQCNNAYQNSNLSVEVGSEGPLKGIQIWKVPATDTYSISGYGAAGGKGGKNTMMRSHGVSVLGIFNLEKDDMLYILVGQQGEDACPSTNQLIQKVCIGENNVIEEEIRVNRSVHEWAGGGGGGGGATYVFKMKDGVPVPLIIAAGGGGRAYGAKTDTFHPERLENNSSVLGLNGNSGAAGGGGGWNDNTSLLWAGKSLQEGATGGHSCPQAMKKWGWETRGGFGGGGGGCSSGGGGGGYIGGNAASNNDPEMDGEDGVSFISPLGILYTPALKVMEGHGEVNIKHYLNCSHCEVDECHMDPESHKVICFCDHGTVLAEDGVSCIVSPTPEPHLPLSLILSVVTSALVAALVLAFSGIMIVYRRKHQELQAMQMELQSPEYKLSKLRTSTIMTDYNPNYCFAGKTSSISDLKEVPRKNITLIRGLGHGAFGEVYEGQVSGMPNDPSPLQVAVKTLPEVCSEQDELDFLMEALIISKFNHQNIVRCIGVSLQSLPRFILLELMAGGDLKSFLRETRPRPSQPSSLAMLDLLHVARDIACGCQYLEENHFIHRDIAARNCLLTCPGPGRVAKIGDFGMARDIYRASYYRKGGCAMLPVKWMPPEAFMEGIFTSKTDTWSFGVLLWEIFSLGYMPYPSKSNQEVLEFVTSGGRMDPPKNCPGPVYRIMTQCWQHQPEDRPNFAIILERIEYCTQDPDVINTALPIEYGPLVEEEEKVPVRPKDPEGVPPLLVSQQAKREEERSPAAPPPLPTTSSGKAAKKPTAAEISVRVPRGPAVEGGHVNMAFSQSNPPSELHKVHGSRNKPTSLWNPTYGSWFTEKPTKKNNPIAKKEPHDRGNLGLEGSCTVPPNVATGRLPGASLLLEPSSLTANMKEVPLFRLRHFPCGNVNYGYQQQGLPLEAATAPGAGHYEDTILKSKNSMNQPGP

SMILES	IC50 (Wild Type ALK kinase)	IC50 (NCI-H2228 cell line)
Cc1cc(Nc2ncc(Cl)c(Nc3cn(C)nc3S(=O)(=O)CC(C)C)n2)c(OC2CC2)cc1[C@H]1CC[C@H](NC(C)C)CC1 [Final product 182]	0.014 µM	0.089 µM
Cc1cc(Nc2ncc(Cl)c(Nc3cn(C)nc3S(=O)(=O)C(C)C)n2)c(OC(C)C)cc1[C@H]1CC[C@H](NC(C)C)CC1 [Final product 188]	0.005 µM	0.089 µM
Cc1cc(Nc2ncc(Cl)c(Nc3cn(C)nc3S(=O)(=O)C(C)C)n2)c(OC2CC2)cc1[C@H]1CC[C@@H](N(C)C)CC1 [Final product 189]	0.004 µM	0.076 µM
Cc1cc(Nc2ncc(Cl)c(Nc3cn(C)nc3S(=O)(=O)C(C)C)n2)c(OC2CC2)cc1[C@H]1CC[C@H](NC2CC2)CC1 [Final product 196]	0.009 µM	0.088 µM

Second part, the compound after the results:

IC50 (Wild Type ALK kinase)	IC50 (NCI-H2228 cell line)	SMILES
0.005 µM	0.054 µM	Cc1cc(Nc2ncc(Cl)c(Nc3cn(C)nc3S(=O)(=O)C(C)C)n2)c(OC2CC2)cc1[C@H]1CC[C@H](NC(C)C)CC1 [Final product 198]
0.007 µM	0.076 µM	CC(=O)N1CCN([C@H]2CC[C@H](c3cc(OC4CC4)c(Nc4ncc(Cl)c(Nc5cn(C)nc5S(=O)(=O)C(C)C)n4)cc3C)CC2)CC1 [Final product 204]
0.006 µM	0.152 µM	Cc1cc(Nc2ncc(Cl)c(Nc3cn(C)nc3S(=O)(=O)C(C)C)n2)c(OC2CC2)cc1C1=C(Cl)CN(C)CC1 [Final product 208, 5-chloro-N^2-[4-(5-chloro-1-methyl-1,2,3,6-tetrahydro-pyridin-4-yl)-2-cyclopropoxy-5-methyl-phenyl]-N^4-[1-methyl-3-(isopropylsulfonyl)-1H-pyrazol-4-yl]-pyrimidin-2,4-diamine]
